From publication PMC5563081, “Modulating Protein-Protein Interactions of the Mitotic Polo-like Kinases to Target Mutant KRAS” (Cell Chemical Biology, 2017)
Read-outs that look alike come from different tables or passages of the source. Blank lines part the entries; values can stand above or below the molecule they belong to. Non-standard residues stand in square brackets, D forms with d. No end group written: not given here. *: point of attachment. TAMRA = tetramethyl-6-carboxy-rhodamine, CN(C)c1ccc2c(-c3cc(C(=O)*)ccc3C(=O)[O-])c3ccc(N(C)C)cc3[o+]c2c1; pT = C[C@@H](OP(=O)(O)O)[C@H](N)C(=O)O

What was measured:
[1] = system: SW48 parental (KRAS WT) cells; assay: Cell viability (SRB), SW48 parental; type: cell-based; settings: Homo sapiens; SW48 KRAS WT, Crizotinib with DMSO, SRB 72 hr; read-out: GI50
Experimental: (§1) SW48 Parental, SW48 G12D, Panc-1, HPAF-II, Panc 02.03 and Panc 05.04 cell lines were seeded overnight at 5000 cells per well in a 96 well plate in recommended media (ATCC). Compounds were added the following day and viability was measured at 72h using the sulforhodamine B (SRB) colorimetric assay as follows. Cells were fixed by replacing media with 1% v/v Trichloroacetic Acid (TCA) (Sigma-Aldrich) at 4°C and incubated for 1h also at 4°C. Wells were washed thoroughly with copious amounts of deionised water before staining with Sulforhodamine B (SRB) (Sigma-Aldrich) solution (0.057% w/v in 1% v/v Acetic Acid (VWR)) for 30 min. Stain was aspirated and wells washed with several changes of 1% v/v Acetic Acid until unbound stain was removed, before air-drying. Bound stain was solubilized with 100μl / well 10mM Tris (pH 8.0) (Trizma Base (121.1) Sigma-Aldrich) with agitation for 10 min. Fluorescence intensity was recorded at Ex540nm / Em590nm using a BMG Pherastar Plus plate reader ([Vichai and Kirtikara, 2006]).

[2] = system: murine pancreatic organoids KRAS MUT p53 MUT; assay: Viability of pancreatic organoids (CellTitre Glo 3D), KRAS G12D; type: cell-based; settings: Mus musculus; organoids KRAS MUT p53 MUT #2, Crizotinib plus DMSO, n=2; read-out: Mean GI50
Experimental: (§2) Organoid cultures were prepared from the pancreas of LSL-Trp53^R172H/+, Pdx-1-Cre (for Kras WT organoids) or LSL-Trp53^R172H/+, LSL-Kras^G12D/+, Pdx-1-Cre (for Kras^G12D organoids KPC3760 and KPC26684) strains ([Hingorani et al., 2005]). Pancreatic ducts were manually picked after tissue mincing and overnight enzymatic digestion with 0.012% (w/v) collagenase XI (Sigma) and 0.012% (w/v) dispase (GIBCO) in DMEM media containing 1% FBS (GIBCO), before seeding in growth-factor-reduced (GFR) Matrigel (BD) ([Boj et al., 2015]).
(§3) Pancreatic organoids were extracted and cultured as detailed above ([Boj et al., 2015]). In brief, pancreatic organoids were seeded at 600 cells per well in a 96 well plate and allowed to grow for 7 days with media replenishment on the 3rd day. Full-grown organoids were then treated with compounds for 72h and viability determined using CellTitre Glo 3D assay (Promega). For viability assays with c-MET siRNA, cells were reverse transfected in a 6 cm dish using Dharmafect 1 (GE Dharmacon) per manufacturer’s instructions. On the following day, cells were trypsinised and plated onto 96 well plates or 6 well plates. The 96 well plates were treated with a dose range of compounds or DMSO, and viability was determined via SRB colorimetric assay. Cells in the 6 well plates were collected at the end of experiment to corroborate knockdown of c-MET by Western blotting.

[3] = system: HT29; assay: Cell viability, HT29; type: cell-based; settings: Homo sapiens, HT-29, read-out: Crizotinib GI50
[4] = system: Panc 02.03; assay: Cell viability (SRB), Panc 02.03; type: cell-based; settings: Homo sapiens, Panc 02.03; read-out: Crizotinib GI50
Experimental: as §1
as §3, with “Cells in the 6 well plates were collected at the end of experiment to corroborate knockdown of c-MET by Western blotting.” left out
(§4) Cells were reverse-transfected with 50nM (SW48 parental, SW48 KRAS G12D and Panc-1) or 25nM (HeLa Flp-In T-REx parental cells) siRNA using Dharmafect (GE Dharmacon) as manufacturer’s recommendations. […] Viability was assessed after 72 hrs, with the SRB colorimetric assay. Knockdown efficiencies were determined by Western blot or RT-qPCR. […]

[5] = system: Panc 05.04; assay: Cell viability (SRB), Panc 05.04; type: cell-based; settings: Homo sapiens, Panc 05.04; Panc 04.05; read-out: Crizotinib GI50
Experimental: as §1
as §3, with “Cells in the 6 well plates were collected at the end of experiment to corroborate knockdown of c-MET by Western blotting.” left out
as §4

[6] = system: SW48 KRAS G12D cells; assay: Cell viability (SRB), SW48 KRAS G12D; type: cell-based; settings: Homo sapiens; SW48 KRAS G12D, Crizotinib with DMSO, SRB 72 hr; read-out: GI50
Experimental: as §1

[7] = system: SW116; assay: Cell viability, SW1116; type: cell-based; settings: Homo sapiens, read-out: Crizotinib GI50
[8] = system: Panc-1; assay: Cell viability (SRB), Panc-1; type: cell-based, human; settings: Homo sapiens
Experimental: as §1, §3
Cells were reverse-transfected with 50nM (SW48 parental, SW48 KRAS G12D and Panc-1) or 25nM (HeLa Flp-In T-REx parental cells) siRNA using Dharmafect (GE Dharmacon) as manufacturer’s recommendations. Where transfected cells were subsequently treated with compounds, the cells were allowed to settle overnight and then treated with compound at the indicated concentration the following day. Viability was assessed after 72 hrs, with the SRB colorimetric assay. Knockdown efficiencies were determined by Western blot or RT-qPCR. Oligos against the following target sequences were used. c-MET (Qiagen): […], […], […]. PLK1 (Qiagen): […]. PLK2 (SMARTpool; Dharmacon): ACACAGAAGGAGAACGAUA, CAUCAAUGAGGAUAGGAUA, CUGCCUAGUGUUACUGAUA, ACAAAGUCUACGCCGCAAA. PLK3 (SMARTpool; Dharmacon): GCGAGAAGAUCCUAAAUGA, GCAAGUGGGUUGACUACUC, GCACAUCCGUUGGCCAUCA, GACCUCAAGUUGGGAAAUU. PLK4 (Qiagen): […].

[9] = system: DLD-1; assay: Cell viability, DLD-1; type: cell-based; settings: Homo sapiens, read-out: Crizotinib GI50
[10] = system: murine pancreatic organoids KRAS WT p53 MUT; assay: Viability of pancreatic organoids (CellTitre Glo 3D), KRAS WT; type: cell-based; settings: Mus musculus; organoids KRAS WT p53 MUT, Crizotinib plus DMSO, n=2; read-out: Mean GI50
Experimental: as §2, §3

[11] = molecular target: T1, PLK2-PBD(356-681), Polo-box domain of human Polo-like kinase 2 (human, UniProt Q9NYY3 356-681); assay: fluorescence polarisation; competition format: TAMRA-labelled phosphopeptide 10 nM, PBD 84 nM (2.5 ng/ul), PBS pH 7.4 plus 0.03% tween; compound and PBD incubated together at 22 C for 1 hour before the peptide was added; same procedure for PLK2 PBD with its own peptide; settings: both partners purified
T1 construct: Polo-like kinase 2 (PLK2), human, Polo-box domain, residues 356-681; also called PLK2 PBD (aa356-681); PLK2 PDB; source: E. coli C41, purified (GST-Sepharose column, cleaved on column with PreScission protease, gel chromatography)
T1 sequence (looked up): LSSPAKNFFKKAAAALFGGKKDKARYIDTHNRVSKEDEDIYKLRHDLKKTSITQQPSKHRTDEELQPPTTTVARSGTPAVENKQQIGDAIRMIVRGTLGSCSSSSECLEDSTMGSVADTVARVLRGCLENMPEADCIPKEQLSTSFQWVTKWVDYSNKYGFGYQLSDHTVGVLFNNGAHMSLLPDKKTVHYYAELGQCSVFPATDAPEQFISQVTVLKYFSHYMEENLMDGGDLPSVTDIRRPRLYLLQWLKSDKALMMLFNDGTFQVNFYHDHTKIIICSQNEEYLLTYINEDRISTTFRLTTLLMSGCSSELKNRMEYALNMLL

- GI50 [3]: 3850 nM
- GI50 [4]: 960 nM
- GI50 [5]: 91 nM
- GI50 [6]: 630 ± 10 nM
- GI50 [7]: 4730 nM
- GI50 ([8]; PANC-1, 72 h, Panc-1, individual compound, 72 hr, Figure 7F/7G, read-out: Abs GI50): 2500 nM
- GI50 ([8]; PANC-1, Panc-1, read-out: Crizotinib GI50): 7240 nM
- GI50 [9]: 1620 nM
Molecule: C[C@@H](Oc1cc(-c2cnn(C3CCNCC3)c2)cnc1N)c1c(Cl)ccc(F)c1Cl [Crizotinib, reference compound]
- GI50 [1]: 560 ± 20 nM
- GI50 [2]: 6800 nM
- EC50 ([8]; Panc-1, c-MET inhibitor alone, SRB 72 h, Figure S5C, read-out: EC50, % survival): 3500 ± 1040 nM
- GI50 [10]: 17600 nM

- binding result [11]: binds
B1: TAMRA-MAGPMQTS(pThreonine)PKNGAKK, consensus binding phosphopeptide used with the PLK2 PBD (peptide)
peptide: {TAMRA}-MAGPMQTS[pT]PKNGAKK
notes: the second T of 'TST' is phosphothreonine; also called phosphopeptide substrate; source: bought: Designer Bioscience
